In brackets after ≈: the same amount, converted by molar mass. Like-named read-outs stand apart in the source and are kept apart here.
Experiments:
Experiment in all cases: MIC, microbroth dilution method
P. aeruginosa (PA07) = assay type: cell-based
Description: (§1) The antimicrobial activity (minimum inhibitory concentration, MIC) was evaluated by employing microbroth dilution method to determine the lowest concentration of the assayed antimicrobial additive material.

K. pneumoniae (KP001) = assay type: cell-based
Description: as §1

A. baumannii (AB034) = assay type: cell-based
Description: as §1

E. coli (K12) = assay type: cell-based
Description: as §1

E. cloacae (EB5) = assay type: cell-based
Description: as §1

MRSA (SA001) = assay type: cell-based, Staphylococcus aureus
Description: as §1

A. baumannii (AB30) = assay type: cell-based
Description: as §1

E. coli (E524) = assay type: cell-based; conditions: Escherichia coli
Description: as §1

MRSA (SA004) = assay type: cell-based, Staphylococcus aureus
Description: as §1

| Compound | MIC (P. aeruginosa (PA07)) [mg/L] | MIC (K. pneumoniae (KP001)) [mg/L] | MIC (A. baumannii (AB034)) [mg/L] | MIC (E. coli (K12)) [mg/L] | MIC (E. cloacae (EB5)) [mg/L] | MIC (MRSA (SA001)) [mg/L] | MIC (P. aeruginosa (PA07); Pseudomonas aeruginosa, read-out: MIC) [mg/L] | MIC (A. baumannii (AB30); Acinetobacter baumannii, read-out: MIC) [mg/L] | MIC (K. pneumoniae (KP001); Klebsiella pneumoniae, read-out: MIC) [mg/L] | MIC (E. coli (E524)) [mg/L] | MIC (E. cloacae (EB5); Enterobacter cloacae, read-out: MIC) [mg/L] | MIC (MRSA (SA004); Staphylococcus aureus, read-out: MIC) [mg/L] | MIC (A. baumannii (AB30)) [mg/L] | MIC (MRSA (SA004)) [mg/L] |
| --- | --- | --- | --- | --- | --- | --- | --- | --- | --- | --- | --- | --- | --- | --- |
| Benzalkonium chloride [BAC] | 32 | 4 | 2 | 16 | 8 | 1 | – | – | – | – | – | – | – | – |
| [H]/N=C(\N/C(=N/[H])NCCCCCCNC(=N)NC(=N)Nc1ccc(Cl)cc1)Nc1ccc(Cl)cc1 [Chlorhexidine] | – | – | – | – | – | – | 16 (≈ 31.7 µM) | 256 (≈ 506 µM) | < 0.5 | 2 (≈ 3.96 µM) | 8 (≈ 15.8 µM) | 8 (≈ 15.8 µM) | – | – |
| [Ag] [Ag, Silver] | 2 | 8 | 8 | 2 | 32 | 8 | – | – | – | – | – | – | – | – |
| Neomycin | 128 | – | – | – | 4 | – | – | – | – | – | – | – | 8 | 4 |
